Data on one compound can be found in patent publication US7282484B2, “Anti-tumor agents” (Point Therapeutics, Inc., priority 1999, dated 2007).

For assay [1], the system named is FAP-α+ CD26− primary human stromal cells. As to the kind of experiment: G-CSF release from FAP-α+ CD26− primary human stromal cells (ELISA). As to conditions: human bone marrow cells lacking CD26 but expressing FAP-α, 2 days incubation. In kind it is cell-based. As for the experimental part: (§1) Cell source. Bone marrow was kindly donated by New England Medical Center, Boston, Mass. and Dr. Richard Benjamin from Brigham and Women's Hospital in Boston, Mass. Mononuclear cells were purified over Ficoll and used immediately or frozen in liquid nitrogen.
Establishment of human stromal feeder layer. 2 to 4×10^7 human bone marrow mononuclear cells were seeded into a T75 flask (Corning) containing 20 mls of LTC medium and incubated. at 37° C. in 100% humidified 5% CO2 in air. After 1 week half the medium was exchanged for fresh medium and incubated for approximately 1 week when a confluent cell layer formed.
ELISA of human cells. Cultured supernatants were assayed for a high sensitivity ELISA (R+D Systems).
PT-100 incubation, supernatant collection and DPPIV-like activity assay for human and rat cells were carried out in an identical manner.
The DPPIV-like activity associated with the intact cells was inhibited by-PT-100. Stromal cells were established from the bone marrow of a human volunteer as described in the materials and methods. The stromal cells were incubated for 2 days in the presence or absence of the indicated concentrations of PT-100 and cultured supernatants were assayed for IL-6 or DPPIV-like activity as described in Materials and Methods.
(In general: An ELISA detects its analyte on a solid surface through an enzyme-linked reagent.)

In assay [2] the test system is Fischer D+ and D− rat bone marrow stromal cells. Kind of assay: IL-6 release from rat bone marrow stromal cells (ELISA). In kind it is cell-based. As to conditions: 2 days incubation. As for the experimental part: (§2) Cell Source. 8-12 week old female wild type CD26 positive (D^+) and CD26 negative (D^−) Fischer rat (Charles River Labs, Japan) bone marrow.
(§3) Bone marrow preparation. Bone marrow was flushed from each femur, tibia and fibula with Dulbecco's phosphate buffered saline (D-PBS) using a 21-gauge needle and a 10 ml syringe. After removal, the bone marrow was immediately aspirated through the needle to make a single cell suspension. The cells were washed twice with sterile PBS and resuspended in MyeloCult H5100 long-term culture (LTC) media, available from Stem Cell Technologies, and supplemented with freshly diluted 10^−6 M hydrocortisone, available from Sigma.
Establishment of adherent bone marrow stromal cell cultures. 1-2×10^7 cells were seeded into a T25 flask (Coming) containing 10 mls of LTC medium and incubated at 37° C. in 100% humidified 5% CO2 in air. After 1 week half the medium was exchanged for fresh medium and incubated for approximately 1 week until a confluent cell layer formed. PT-100 incubation. The adherent stromal cells were removed from the flask by trypsin-EDTA (Life Technologies, Inc.) digestion, washed once with sterile PBS and resuspended in long term culture medium at 1×10^5/ml. […]
Similar levels of IL-6 are secreted from bone marrow stromal cells of D^+ and D^− rats. […] IL-6 levels in the culture supernatant were determined by ELISA.

The test system of the next assay is B16-F0 tumor. As to the kind of experiment: Established subcutaneous B16 melanoma in C57BL/6 mice. In kind it is in vivo, mouse. As for the experimental part:
The highly metastic B16-F0 tumor was implanted subcutaneously (s.c.) in C57BL/6 mice. PT-100 administration was started on day 8 when palpable tumors were apparent. Tumor volumes were measured on days 8, 12, and 15. […] In the experiment of FIG. 4 each experimental group contained 10 animals.

Assay [3] concerns DPPIV-like activity of Fischer D+ and D− rat BM stromal cells. Kind of assay: DPPIV-like activity assay on rat bone marrow stromal cells. In kind it is cell-based. As for the experimental part: as §2, §3
Establishment of adherent bone marrow stromal cell cultures. […]
DPPIV-like activity assay. […] The reaction was stopped by removing the substrate solution from each well and measured in the fluorescence spectrophotometer or stored −20° C. Activity was measured using an excitation wavelength of 400 nm and emission wavelength of 505 nm.
Bone marrow stromal cells were established from the long bones of Fischer D^+ and D^− rats and cultured for 2 days in the presence or absence of PT-100. […] DPPIV-like activity is presented as velocity and the percent of protease activity inhibition with PT-100 is calculated relative to a ‘no treatment’ control.

A further assay deals with WEHI-164 fibrosarcoma. As to the kind of experiment: Subcutaneous WEHI-164 fibrosarcoma in mice. In kind it is in vivo, mouse. As for the experimental part:
Thus in the experiment of FIG. 5, the large reductions in tumor volume recorded were in part due to the absence of a palpable tumor in some of the mice:in each of the PT-100 treated groups (10 replicate animals per group). For example, in the mice treated with the 5 μg dose of PT-100 administered b.i.d., 6 of the animals were completely free of a detectable s.c. tumor. PT-100 treatment of the mice in the experimental groups was stopped on day 20, the day when the data of FIG. 5 were recorded.

Assay [4] deals with DPPIV-like activity of FAP-α+ CD26− primary human stromal cells. As to the kind of experiment: DPPIV-like activity assay on FAP-α+ CD26− primary human stromal cells. Format: cell-based. As to conditions: human stromal cells lacking CD26 but expressing FAP-α, 2 days incubation. As for the experimental part: DPPIV-like activity assay. Following the removal of supernatant from the stromal cultures, the adherent cells were washed with D-PBS and assayed for DPPIV-like activity. The fluorogenic substrate Ala-Pro-AFC was diluted in DPPIV buffer (50 mM Hepes, 140 mM NaCl) from the original stock of 10 mM (stored at −20° C. as a solution in dimethyl-formamide) to 1 mM, directly before the assay. 30 μl of the 1 mM stock was added per ml of buffer and the stromal cells were incubated for 10 minutes with 1 ml per well of the diluted substrate. The reaction was stopped by removing the substrate solution from each well and measured in the fluorescence spectrophotometer or stored −20° C. Activity was measured using an excitation wavelength of 400 nm and emission wavelength of 505 nm.
as §1
Establishment of human stromal feeder layer. 2 to 4×10^7 human bone marrow mononuclear cells were seeded into a T75 flask (Corning) containing 20 mls of LTC medium and incubated. at 37° C. in 100% humidified 5% CO2 in air. After 1 week half the medium was exchanged for fresh medium and incubated for approximately 1 week when a confluent cell layer formed. […]

Where [5] appears, read: administration started on day 2 after implantation.

Where “and” joins values, the source holds several entries; their conditions need not be identical. Identical values can stand only once.

With `CC(C)[C@H](N)C(=O)N1CCC[C@H]1B(O)O` [PT-100, valine-proline-boronic acid], the G-CSF release entry in assay [1] is listed as “potently stimulated”. For the same compound, the “IL-6 levels in culture supernatant” value in assay [2] is given as “enhanced”. Also, the Tumor growth entry in the assay on B16-F0 tumor (160 μg administered for two days, day 8 and day 9) is “effective in suppressing tumor growth”. In addition, in the assay on B16-F0 tumor (10 and 40 μg p.o. b.i.d. from day 8 to 14, tumor volumes days 8, 12, 15), the “Tumor growth compared with saline treated control mice” value was “markedly inhibited”. The “Growth of B16 melanoma” value in the assay on B16-F0 tumor (administered orally, mice) is reported as “significantly inhibits”. In assay [3] (Fischer D− (CD26 negative) rat BM stromal cells, 2 days culture, 10^−6 M, relative to no treatment control), the “% Inhibition by 10^−6 M PT-100 of DPPIV-like activity” value is 86.4% and 73.8% and 62.1%. The “Inhibition of DPPIV-like activity (in words)” value in assay [3] (rat bone marrow stromal cells which lack CD26) is “potently inhibited”. Moreover, the “Animals completely free of a detectable s.c. tumor” value with WEHI-164 fibrosarcoma (5 μg b.i.d., started day 2, recorded day 20, 10 animals per group) is given as 6 animals. In the assay with WEHI-164 fibrosarcoma (administered orally, mice), the “Growth of WEHI-164 fibrosarcoma” value is given as “significantly inhibits”. In addition, in the assay on WEHI-164 fibrosarcoma (setting [5]), the Tumor growth result is “tumor growth inhibited”; the “Tumor necrosis and regression” value is “a proportion of the tumors also became necrotic and apparently regressed completely”. Further, the “Growth of an established s.c. tumor” value with WEHI-164 fibrosarcoma (established s.c. WEHI-164 tumor) was “could suppress the growth”. Besides, the “Tumor recurrence in mice recorded as tumor-free on day 20” value with WEHI-164 fibrosarcoma (treatment stopped on day 20, monitored up to day 30 after implantation) was “none of the mice recorded as tumor-free on day 20 has developed a detectable s.c. tumor”. Also, the “Inhibition of DPPIV-like activity associated with the intact cells” value in assay [4] was “inhibited”.
